Measurements from patent publication US5981530A, “Piperazine derivative” (Senju Pharmaceutical Co., Ltd., priority 1995, dated 1999).
Counter-ions that a name gives are not always drawn.

Tested on: rat palpebral PCA reaction
Assay: Passive cutaneous anaphylactic (PCA) reaction of the rat palpebra
Format: in vivo, rat (male Wistar)
Conditions: 100 mg/5 ml/kg oral, 60 min prior to induction of PCA; for Degree of Inhibition (%): vs negative control
Experimental: Effect of the compound of the invention on the passive cutaneous anaphylactic (PCA) reaction of the rat palpebra
The effect of the compound of the invention on rat palpebral PCA reaction was investigated.
Male Wistar rats weighing about 120 g were purchased from Japan SLC for the experiment.
Using a microsyringe, 25 μl of antiserum (32-fold dilution) was injected beneath the palpebral conjunctiva of the right eye of rats under pentobarbital anesthesia. Forty-eight (48) hours after injection of antiserum, a mixture of 2% chicken egg albumin and 1% Evans blue, 5 ml/kg, was administered into the tail vein to induce PCA reaction. Thirty (30) minutes after induction, the rat was sacrificed and the stained portion of the palpebral conjunctiva of the right eye was excised. The dye was extracted into 5 ml of formamide, and the amount of the dye was determined at 625 nm.
The test substance, 100 mg/5 ml/kg, was administered orally 60 minutes prior to induction of PCA reaction.
As a negative control, 5 ml/kg of 0.5% carboxymethylcellulose (CMC) was administered orally. As a positive control, 100 mg/5 ml/kg of diphenhydramine hydrochloride, a commercial antihistaminic, was administered orally.

[1] = Table 1, mean ± SD (n = 5), negative control 0.662 ± 0.112, *1 p < 0.05, *2 p < 0.001
[2] = Table 1, n = 5, *1 p < 0.05, *2 p < 0.001

SMILES	Absorbance (extracted dye, 625 nm) (Table 2, mean ± SD (n = 6), negative control 0.486 ± 0.093, *1 p < 0.001)	Degree of Inhibition (%) (Table 2, n = 6, *1 p < 0.001)	Absorbance (extracted dye, 625 nm) [1]	Degree of Inhibition (%) [2]
O=C(O)c1ccccc1N1CCN(CC(O)COc2cccc3[nH]ccc23)CC1 (stereo not drawn) [Example 5, 3-[4-(2-Carboxyphenyl)piperazinyl]-1-(1H-indol-4-yloxy)propan-2-ol]	0.276 ± 0.048	43.2%	–	–
CN(C)CCOC(c1ccccc1)c1ccccc1 [Diphenhydramine HCl, diphenhydramine hydrochloride, reference compound]	–	–	0.413 ± 0.126	37.6%
COc1ccc(OCC(O)CN2CCN(c3ccccc3C(=O)O)CC2)c(C(C)(C)C)c1 (stereo not drawn) [Example 1, 3-[4-(2-Carboxyphenyl)piperazinyl]-1-(2-tert-butyl-4-methoxyphenoxy)propan-2-ol]	–	–	0.299 ± 0.056	54.8%
